Data: patent US9399637B2, “Substituted heteroaryl compounds and methods of use” (Calitor Sciences, LLC, priority 2014, dated 2016)

Key:
[1] = Compound stability in rat liver microsomes; assay type: in vitro ADME; conditions: pH 7.4; for half-life at 5 μM: rat liver microsomes 0.5 mg protein/mL, compound 5 μM, NADPH, 37° C., read-out: Rat T1/2; for CLint scaled at 5 μM: rat liver microsomes, in vivo CLint extrapolated
Description: Human or rat liver microsomes incubations were conducted in duplicate in polypropylene tubes. The typical incubation mixtures consisted of human or rat liver microsomes (0.5 mg protein/mL), compounds of interest (5 μM) and NADPH (1.0 mM) in a total volume of 200 μL potassium phosphate buffer (PBS, 100 mM, pH 7.4). Compounds were dissolved in DMSO and diluted with PBS such that the final concentration of DMSO was 0.05%. The enzymatic reactions were commenced with the addition of […] after a 3-min preincubation and incubated in a water bath open to the air at 37° C. Reactions were terminated at various time points (0, 5, 10, 15, 30, 60 min) by adding equal volume of ice-cold acetonitrile. The samples were stored at […] until LC/MS/MS assays.
The concentrations of compounds in the incubation mixtures of human or rat liver microsomes were determined by a LC/MS/MS method. The ranges of the linearity in the concentration range were determined for each tested compounds.
A parallel incubation was performed using denatured microsomes as the negative control, and reactions were terminated at various time points (0, 15, 60 min) after incubation at 37° C.
Dextromethorphan (70 μM) was selected as the positive control, and reactions were terminated at various time points (0, 5, 10, 15, 30, 60 min) after incubation at 37° C. Both positive and negative control samples were included in each assay to ensure the integrity of the microsomal incubation system.
The concentrations of compounds in human or rat liver microsome incubations were plotted as a percentage of the relevant zero time point control for each reaction. The in vivo CLint were extrapolated (ref.: Naritomi, Y.; Terashita, S.; Kimura, S.; Suzuki, A.; Kagayama, A.; and Sugiyama, Y.; Prediction of human hepatic clearance from in vivo animal experiments and in vitro metabolic studies with liver microsomes from animals and humans. Drug Metab. Dispos., 2001, 29: 1316-1324).

JAK3 (h) = target: T1, JAK3 (h) (Homo sapiens, UniProt P52333); test: JAK3 kinase assay; assay type: biochemical
T1 construct: purchased Millipore UK Ltd (assays run there as a service)
T1 sequence (P52333 1-1124): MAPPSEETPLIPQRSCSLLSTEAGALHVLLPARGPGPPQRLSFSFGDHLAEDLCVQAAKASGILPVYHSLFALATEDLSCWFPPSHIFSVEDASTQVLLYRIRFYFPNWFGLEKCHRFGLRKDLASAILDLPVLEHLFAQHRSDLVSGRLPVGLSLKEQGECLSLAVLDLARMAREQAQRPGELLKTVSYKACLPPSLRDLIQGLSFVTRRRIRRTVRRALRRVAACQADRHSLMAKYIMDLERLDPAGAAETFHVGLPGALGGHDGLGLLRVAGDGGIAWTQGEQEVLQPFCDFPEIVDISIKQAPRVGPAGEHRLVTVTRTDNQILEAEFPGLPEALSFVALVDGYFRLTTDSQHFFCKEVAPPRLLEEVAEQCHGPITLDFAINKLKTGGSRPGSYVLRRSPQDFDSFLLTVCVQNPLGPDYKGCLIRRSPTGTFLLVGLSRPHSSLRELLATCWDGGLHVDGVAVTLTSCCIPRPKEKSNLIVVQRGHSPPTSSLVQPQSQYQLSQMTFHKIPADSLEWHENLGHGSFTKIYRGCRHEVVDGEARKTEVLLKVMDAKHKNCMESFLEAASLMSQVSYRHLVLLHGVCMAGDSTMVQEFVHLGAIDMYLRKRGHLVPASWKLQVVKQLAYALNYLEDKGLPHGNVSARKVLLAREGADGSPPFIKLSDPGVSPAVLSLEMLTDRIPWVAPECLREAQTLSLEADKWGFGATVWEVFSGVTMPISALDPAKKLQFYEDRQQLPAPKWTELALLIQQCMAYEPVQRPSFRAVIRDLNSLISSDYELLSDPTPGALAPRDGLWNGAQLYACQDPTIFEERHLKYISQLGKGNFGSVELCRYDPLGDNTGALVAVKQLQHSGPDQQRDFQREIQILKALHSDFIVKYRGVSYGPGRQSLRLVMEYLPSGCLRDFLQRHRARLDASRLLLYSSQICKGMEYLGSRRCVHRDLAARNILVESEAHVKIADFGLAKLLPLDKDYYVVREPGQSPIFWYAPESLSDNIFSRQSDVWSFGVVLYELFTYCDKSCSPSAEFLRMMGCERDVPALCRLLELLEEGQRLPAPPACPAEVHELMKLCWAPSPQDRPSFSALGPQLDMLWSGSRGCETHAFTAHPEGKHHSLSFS
Description: Kinase assays can be performed by measurement of incorporation of γ-^33P ATP into immobilized myelin basic protein (MBP). High binding white 384 well plates (Greiner) are coated with MBP (Sigma #M-1891) by incubation of 60 μL/well of 20 μg/mL MBP in Tris-buffered saline (TBS; 50 mM Tris pH 8.0, 138 mM NaCl, 2.7 mM KCl) for 24 h at 4° C. Plates are washed 3× with 100 μL TBS. Kinase reactions are carried out in a total volume of 34 μL in kinase buffer (5 mM Hepes pH 7.6, 15 mM NaCl, 0.01% bovine gamma globulin (Sigma #I-5506), 10 mM MgCl2, 1 mM DTT, 0.02% TritonX-100). Compound dilutions are performed in DMSO and added to assay wells to a final DMSO concentration of 1%. Each data point is measured in duplicate, and at least two duplicate assays are performed for each individual compound determination. Enzyme is added to final concentrations of 10 nM or 20 nM, for example. A mixture of unlabeled ATP and γ-^33P ATP is added to start the reaction (2×10^6 cpm of γ-^33P ATP per well (3000 Ci/mmole) and 10 μM unlabeled ATP, typically. The reactions are carried out for 1 h at room temperature with shaking Plates are washed 7× with TBS, followed by the addition of 50 μL/well scintillation fluid (Wallac). Plates are read using a Wallac Trilux counter. This is only one format of such assays; various other formats are possible, as known to one skilled in the art. […]

SMILES | half-life at 5 μM [1] [min] | CLint scaled at 5 μM [1] [mL/min/kg] | IC50 (JAK3 (h)) [nM]
CC(=O)N1CCC2(CCC(Nc3nc(Nc4ccc5c(C)n(C)nc5c4)ncc3Cl)CC2)CC1 [Ex. 7, 1-(9-((5-chloro-2-((2,3-dimethyl-2H-indazol-6-yl)amino)pyrimidin-4-yl)amino)-3-azaspiro[5.5]undecan-3-yl)ethanone] | 29.3 | 84.8 | 142
Cc1c2ccc(Nc3ncc(Cl)c(NC4CC5CN(C(=O)CC#N)CC5C4)n3)cc2nn1C (stereo not drawn) [Ex. 4, 3-(5-((5-chloro-2-((2,3-dimethyl-2H-indazol-6-yl)amino)pyrimidin-4-yl)amino)hexahydrocyclopenta[c]pyrrol-2(1H)-yl)-3-oxopropanenitrile] | 25.3 | 98.3 | 535
